Measured values published in patent US7759345B2, “Antitumoral derivatives of ET-743” (priority 2001, dated 2010).

Key:
[1] = test system: K-562; test: Inhibition of cells growth by colorimetric assay (SRB), K-562; format: cell-based; settings: for GI50 / LC50 (50% cell killing): Homo sapiens, K562, 48 h; for GI50 / K-562 TGI: SRB assay, 48 hours exposure; for GI50: read-out: K-562 GI50; for LC50 (50% cell killing): read-out: K-562 LC50, SRB assay, 48 hours exposure
Summary of the method: (§1)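 5×10^3 cells/well; 18 h attach; compound 10–10^−8 μg/ml in DMSO/EtOH/PBS (0.5:0.5:99), 48 h, 37 °C, 5% CO2; cold 50% TCA fix 60 min 4 °C; 0.4% SRB 10 min RT; Tris solubilization; OD 490 nm; triplicates.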

[2] = test system: A-549; test: Inhibition of cells growth by colorimetric assay (SRB), A-549; format: cell-based; settings: for GI50 / LC50 (concentration for 50% cell killing): Homo sapiens, A549, 48 h; for GI50 / A-549 TGI: SRB assay, 48 hours exposure; for GI50: read-out: A-549 GI50; for LC50 (concentration for 50% cell killing): read-out: A-549 LC50, SRB assay, 48 hours exposure
Summary of the method: as §1

[3] = test system: SK-MEL-28; test: Inhibition of cells growth by colorimetric assay (SRB), SK-MEL-28; format: cell-based; settings: for GI50 / CC50: Homo sapiens, SK-MEL-28, 48 h; for GI50 / MEL-28 TGI: SRB assay, 48 hours exposure; for GI50: read-out: MEL-28 GI50; for CC50: read-out: MEL-28 LC50, SRB assay, 48 hours exposure
Summary of the method: as §1

[4] = test system: HT-29; test: Inhibition of cells growth by colorimetric assay (SRB), HT-29; format: cell-based; settings: for GI50 / LC50 (concentration for 50% cell killing): Homo sapiens, HT-29, 48 h; for GI50 / HT-29 TGI: SRB assay, 48 hours exposure; for GI50: read-out: HT-29 GI50; for LC50 (concentration for 50% cell killing): read-out: HT-29 LC50, SRB assay, 48 hours exposure
Summary of the method: as §1

[5] = test system: LoVo; test: Inhibition of cells growth by colorimetric assay (SRB), LoVo; format: cell-based; settings: for GI50 / LC50 (concentration for 50% cell killing): Homo sapiens, LoVo, 48 h; for GI50 / LOVO TGI: SRB assay, 48 hours exposure; for GI50: read-out: LOVO GI50; for LC50 (concentration for 50% cell killing): read-out: LOVO LC50, SRB assay, 48 hours exposure
Summary of the method: as §1

[6] = test system: LoVo-Dox; test: Inhibition of cells growth by colorimetric assay (SRB), LoVo-Dox; format: cell-based; settings: for GI50 / CC50: Homo sapiens, 48 h; for GI50 / LOVO-DOX TGI: SRB assay, 48 hours exposure; for GI50: read-out: LOVO-DOX GI50; for CC50: read-out: LOVO-DOX LC50, SRB assay, 48 hours exposure
Summary of the method: as §1

[7] = test system: DU-145; test: Inhibition of cells growth by colorimetric assay (SRB), DU-145; format: cell-based; settings: for GI50 / CC50: Homo sapiens, DU-145, 48 h; for GI50 / DU-145 TGI: SRB assay, 48 hours exposure; for GI50: read-out: DU-145 GI50; for CC50: read-out: DU-145 LC50, SRB assay, 48 hours exposure
Summary of the method: as §1

[8] = test system: LNCaP; test: Inhibition of cells growth by colorimetric assay (SRB), LNCaP; format: cell-based; settings: for GI50 / CC50: Homo sapiens, LNCaP, 48 h; for GI50: read-out: LNCAP GI50, SRB assay, 48 hours exposure; for CC50: read-out: LNCAP LC50, SRB assay, 48 hours exposure; for LNCAP TGI: SRB assay, 48 hours exposure
Summary of the method: as §1

[9] = test system: SK-BR-3; test: Inhibition of cells growth by colorimetric assay (SRB), SK-BR-3; format: cell-based; settings: for GI50 / CC50: Homo sapiens, SK-BR-3, 48 h; for GI50 / SK-BR3 TGI: SRB assay, 48 hours exposure; for GI50: read-out: SK-BR3 GI50; for CC50: read-out: SK-BR3 LC50, SRB assay, 48 hours exposure
Summary of the method: as §1

[10] = test system: IGROV-1; test: Inhibition of cells growth by colorimetric assay (SRB), IGROV-1; format: cell-based; settings: for GI50 / CC50: Homo sapiens, IGROV-1, 48 h; for GI50 / IGROV TGI: SRB assay, 48 hours exposure; for GI50: read-out: IGROV GI50; for CC50: read-out: IGROV LC50, SRB assay, 48 hours exposure
Summary of the method: as §1

[11] = test system: IGROV-ET; test: Inhibition of cells growth by colorimetric assay (SRB), IGROV-ET; format: cell-based; settings: for GI50 / CC50: Homo sapiens, 48 h; for GI50 / IGROV-ET TGI: SRB assay, 48 hours exposure; for GI50: read-out: IGROV-ET GI50; for CC50: read-out: IGROV-ET LC50, SRB assay, 48 hours exposure
Summary of the method: as §1

[12] = test system: SK-OV-3; test: Inhibition of cells growth by colorimetric assay (SRB), SK-OV-3; format: cell-based; settings: for GI50 / LC50: Homo sapiens, SK-OV-3, 48 h; for GI50 / SK-OV3 TGI: SRB assay, 48 hours exposure; for GI50: read-out: SK-OV3 GI50; for LC50: read-out: SK-OV3 LC50, SRB assay, 48 hours exposure
Summary of the method: as §1

[13] = test system: PANC-1; test: Inhibition of cells growth by colorimetric assay (SRB), PANC-1; format: cell-based; settings: for GI50 / LC50 (concentration for 50% net cell kill): Homo sapiens, PANC-1, 48 h; for GI50 / PANC-1 TGI: SRB assay, 48 hours exposure; for GI50: read-out: PANC-1 GI50; for LC50 (concentration for 50% net cell kill): read-out: PANC-1 LC50, SRB assay, 48 hours exposure
Summary of the method: as §1

[14] = test system: HMEC1; test: Inhibition of cells growth by colorimetric assay (SRB), HMEC1; format: cell-based; settings: for GI50 / LC50: Homo sapiens, HMEC-1, 48 h; for GI50 / HMEC-1 TGI: SRB assay, 48 hours exposure; for GI50: read-out: HMEC-1 GI50; for LC50: read-out: HMEC-1 LC50, SRB assay, 48 hours exposure
Summary of the method: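 Human cancer and endothelial lines are seeded at 5×10^3 cells per well and, after 18 h, treated for 48 h with compound dissolved in DMSO/EtOH/PBS (0.5:0.5:99) at 10 to 10^−8 μg/ml. Cell mass is quantified by SRB staining (OD 490 nm), and growth inhibition, total growth inhibition and cell kill are calculated from triplicate wells.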

[15] = test system: Liver
Source text: (§2) Toxicity was asssessed by the methods reported in Toxicology in Vitro, 15 (2001) 571-577, J. Luber Narod et al.: “Evaluation of the use of in vitro methodolodies as tools for screening new compounds for potential in vivo toxicity”.

[16] = test system: Heart
Source text: as §2

[17] = test system: Myelo
Source text: as §2

[18] = test system: Skeletal
Source text: as §2

[19] = test system: Kidney
Source text: as §2

With `COc1cc2c(cc1O)CCN[C@]21CS[C@@H]2c3c(OC(=O)CCCCC4SCC5NC(=O)NC54)c(C)c4c(c3[C@H](COC1=O)N1C2[C@H]2c3c(cc(C)c(OC)c3O)C[C@@H]([C@@H]1O)N2C)OCO4` (stereo partly shown) [Compound 171] the GI50 [1] was 0.243 nM, the LC50 (50% cell killing) [1] was 0.982 nM and the “K-562 TGI” value [1] was 4.88E-10. For the same molecule, the GI50 [2] was 22.8 nM, the LC50 (concentration for 50% cell killing) [2] was 96 nM and the “A-549 TGI” value [2] was 4.68E-08. For the same molecule, the GI50 [3] was 5.65 nM, the CC50 [3] was 102 nM and the “MEL-28 TGI” value [3] was 2.33E-08. The GI50 [4] was 3.91 nM, the LC50 (concentration for 50% cell killing) [4] was 10600 nM and the “HT-29 TGI” value [4] was 3.24E-08. The GI50 [5] was 23.7 nM, the LC50 (concentration for 50% cell killing) [5] was 10600 nM and the “LOVO TGI” value [5] was 7.66E-08. For the same molecule, the GI50 [6] was 938 nM, the CC50 [6] was 10600 nM and the “LOVO-DOX TGI” value [6] was 1.23E-06. For the same molecule, the GI50 [7] was 5.05 nM, the CC50 [7] was 10600 nM and the “DU-145 TGI” value [7] was 2.96E-08. The GI50 [8] was 1.66 nM, the CC50 [8] was 5.94 nM and the “LNCAP TGI” value [8] was 3.14E-09. For the same molecule, the GI50 [9] was 2.47 nM, the CC50 [9] was 37.5 nM and the “SK-BR3 TGI” value [9] was 6.54E-09. For the same molecule, the GI50 [10] was 1.93 nM, the CC50 [10] was 8.8 nM and the “IGROV TGI” value [10] was 4.12E-09. The GI50 [11] was 225 nM, the CC50 [11] was 10600 nM and the “IGROV-ET TGI” value [11] was 7.08E-07. For the same molecule, the GI50 [12] was 6.89 nM, the LC50 [12] was 10600 nM and the “SK-OV3 TGI” value [12] was 9.73E-08. The GI50 [13] was 7.3 nM, the LC50 (concentration for 50% net cell kill) [13] was 1060 nM and the “PANC-1 TGI” value [13] was 4.63E-08. For the same molecule, the GI50 [14] was 2.94 nM, the LC50 [14] was 10600 nM and the “HMEC-1 TGI” value [14] was 6.90E-09. For the same molecule, the “Toxicity Data Liver” value [15] was 8.37E-08, the “Toxicity Data Heart” value [16] was 3.13E-08 and the “Toxicity Data Myelo” value [17] was 1.37E-07. For the same molecule, the “Toxicity Data Skeletal” value [18] was 3.58E-08 and the “Toxicity Data Kidney” value [19] was 2.70E-08.

For `COc1cc2c(cc1O)CCN[C@]21CS[C@@H]2c3c(OC(=O)CCCCC4SCC5NC(=O)NC54)c(C)c4c(c3[C@H](COC1=O)N1C2[C@H]2c3c(cc(C)c(OC)c3OC(=O)CCCCC3SCC5NC(=O)NC53)C[C@@H]([C@@H]1O)N2C)OCO4` (stereo partly shown) [Compound 172], the GI50 [1] was 6.03 nM, the LC50 (50% cell killing) [1] was 35.3 nM and the “K-562 TGI” value [1] was 9.98E-09. The GI50 [2] was 241 nM, the LC50 (concentration for 50% cell killing) [2] was 853 nM and the “A-549 TGI” value [2] was 4.59E-07. The GI50 [3] was 1.31 nM, the CC50 [3] was 7.97 nM and the “MEL-28 TGI” value [3] was 3.22E-09. The GI50 [4] was 38.8 nM, the LC50 (concentration for 50% cell killing) [4] was 8530 nM and the “HT-29 TGI” value [4] was 1.43E-07. For the same molecule, the GI50 [5] was 226 nM, the LC50 (concentration for 50% cell killing) [5] was 853 nM and the “LOVO TGI” value [5] was 4.61E-07. The GI50 [6] was 2880 nM, the CC50 [6] was 8530 nM and the “LOVO-DOX TGI” value [6] was 7.23E-06. For the same molecule, the GI50 [7] was 37.9 nM, the CC50 [7] was 8530 nM and the “DU-145 TGI” value [7] was 8.31E-08. For the same molecule, the GI50 [8] was 27.7 nM, the CC50 [8] was 66.8 nM and the “LNCAP TGI” value [8] was 4.31E-08. For the same molecule, the GI50 [9] was 50.2 nM, the CC50 [9] was 785 nM and the “SK-BR3 TGI” value [9] was 2.00E-07. For the same molecule, the GI50 [10] was 14.2 nM, the CC50 [10] was 63.6 nM and the “IGROV TGI” value [10] was 3.01E-08. For the same molecule, the GI50 [11] was 165 nM, the CC50 [11] was 853 nM and the “IGROV-ET TGI” value [11] was 4.18E-07. The GI50 [12] was 219 nM, the LC50 [12] was 853 nM and the “SK-OV3 TGI” value [12] was 5.09E-07. For the same molecule, the GI50 [13] was 326 nM, the LC50 (concentration for 50% net cell kill) [13] was 8530 nM and the “PANC-1 TGI” value [13] was 8.34E-07. For the same molecule, the GI50 [14] was 432 nM, the LC50 [14] was 8530 nM and the “HMEC-1 TGI” value [14] was 8.53E-06. The “Toxicity Data Liver” value [15] was 2.47E-07, the “Toxicity Data Heart” value [16] was 7.52E-07 and the “Toxicity Data Myelo” value [17] was 3.81E-07. For the same molecule, the “Toxicity Data Skeletal” value [18] was 8.53E-07 and the “Toxicity Data Kidney” value [19] was 7.93E-07.
